Assay results: ChEMBL document CHEMBL5096205, “Lysine Covalent Antagonists of Melanoma Inhibitors of Apoptosis Protein” (J Med Chem, 2021)

Columns and labels:
[1] = target: E3 ubiquitin-protein ligase XIAP (Homo sapiens, UniProt P98170); assay: Antagonist activity at N-terminal His-tagged XIAP-BIR3 domain (253 to 347 residues)(unknown origin) expressed in Escherichia coli BL21 using AVPIAQKSEK-biotinylated peptide as substrate incubated for 2 hrs by DELFIA assay
[2] = target: Baculoviral IAP repeat-containing protein 3 (Homo sapiens, UniProt Q13489); assay: Antagonist activity at N-terminal His-tagged cIAP2-BIR3 domain (unknown origin) expressed in Escherichia coli BL21 using AVPIAQKSEK-biotinylated peptide as substrate incubated for 2 hrs by DELFIA assay
[3] = target: Baculoviral IAP repeat-containing protein 2 (Homo sapiens, UniProt Q13490); assay: Antagonist activity at N-terminal His-tagged cIAP1-BIR3 domain (unknown origin) expressed in Escherichia coli BL21 using AVPIAQKSEK-biotinylated peptide as substrate incubated for 2 hrs by DELFIA assay
[4] = target: T1, Baculoviral IAP repeat-containing protein 7 (Homo sapiens, UniProt Q96CA5); assay: Antagonist activity at N-terminal His-tagged wild type ML-IAP BIR domain (63 to 179 residues) (unknown origin) expressed in Escherichia coli BL21 using AVPIAQKSEK-biotinylated peptide as substrate incubated for 2 hrs by DELFIA assay
T1 sequence (Q96CA5 whole entry): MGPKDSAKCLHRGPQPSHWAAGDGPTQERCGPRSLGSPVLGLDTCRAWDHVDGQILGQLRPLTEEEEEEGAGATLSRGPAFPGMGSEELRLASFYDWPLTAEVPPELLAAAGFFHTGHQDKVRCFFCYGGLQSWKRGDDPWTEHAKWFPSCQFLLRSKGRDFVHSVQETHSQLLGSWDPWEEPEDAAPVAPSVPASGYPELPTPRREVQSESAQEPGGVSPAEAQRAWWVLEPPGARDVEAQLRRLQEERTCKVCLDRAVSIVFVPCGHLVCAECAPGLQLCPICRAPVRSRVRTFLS

[5] = tested on: SK-MEL-28; assay: Induction of apoptosis in human SK-MEL-28 cells assessed as increase in caspase-3/7 activity at 0.1 to 10 uM in presence of 0.1 ng/mL TNFlpha by IncuCyteS3 caspase-3/7 fluorescence-based apoptosis assay; assay type: functional, cell-based; settings: dose 0.1-10 µM, time <= 48.0 hrs, TDE = time-dependent effect
[6] = organism: Homo sapiens; assay: Binding affinity to N-terminal His-tagged ML-IAP K135A mutant (63 to 179 residues) (unknown origin) expressed in Escherichia coli BL21 assessed as change in melting temperature at 20 uM incubated for 2 hrs followed by heating at 40 to 70 degree C for 30 mins by SYPRO orange dye based thermal shift assay; settings: time 150.0 min
[7] = tested on: SK-MEL-28; assay: Induction of apoptosis in human SK-MEL-28 cells assessed as increase in caspase-3/7 activity measured up to 48 hrs in presence of 0.1 ng/mL TNFlpha by IncuCyteS3 caspase-3/7 fluorescence-based apoptosis assay; assay type: functional, cell-based; settings: dose 0.1-10 µM, DDE = dose-dependent effect
[8] = target: T1, Baculoviral IAP repeat-containing protein 7; assay: Antagonist activity at N-terminal His-tagged wild type ML-IAP BIR domain (63 to 179 residues)(unknown origin) expressed in Escherichia coli BL21 using AVPIAQKSEK-biotinylated peptide as substrate preincubated for 2 hrs with protein followed by substrate addition measured after 2 hrs by DELFIA assay
[9] = target: T2, Baculoviral IAP repeat-containing protein 7 (Homo sapiens) (UniProt Q96CA5); settings: dose 20.0 µM, time 150.0 min
T2 sequence (whole entry): T1 sequence (Q96CA5 whole entry)

E3 ubiquitin-protein ligase XIAP, sequence (P98170 whole entry, the tested form may be a part): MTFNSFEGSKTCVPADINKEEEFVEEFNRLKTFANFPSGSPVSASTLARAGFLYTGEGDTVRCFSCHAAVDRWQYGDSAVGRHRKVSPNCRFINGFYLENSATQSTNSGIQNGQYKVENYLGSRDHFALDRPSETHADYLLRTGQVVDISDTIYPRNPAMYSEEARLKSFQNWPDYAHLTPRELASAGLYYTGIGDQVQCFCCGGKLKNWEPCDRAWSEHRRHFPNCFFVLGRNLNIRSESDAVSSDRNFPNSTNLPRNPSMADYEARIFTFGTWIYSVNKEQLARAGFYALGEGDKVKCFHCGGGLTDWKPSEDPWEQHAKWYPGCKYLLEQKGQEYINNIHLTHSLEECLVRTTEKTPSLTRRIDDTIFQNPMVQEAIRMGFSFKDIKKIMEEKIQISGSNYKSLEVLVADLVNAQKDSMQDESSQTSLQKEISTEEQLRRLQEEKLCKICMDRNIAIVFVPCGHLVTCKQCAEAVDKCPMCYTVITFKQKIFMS
Baculoviral IAP repeat-containing protein 3, sequence (Q13489 whole entry, the tested form may be a part): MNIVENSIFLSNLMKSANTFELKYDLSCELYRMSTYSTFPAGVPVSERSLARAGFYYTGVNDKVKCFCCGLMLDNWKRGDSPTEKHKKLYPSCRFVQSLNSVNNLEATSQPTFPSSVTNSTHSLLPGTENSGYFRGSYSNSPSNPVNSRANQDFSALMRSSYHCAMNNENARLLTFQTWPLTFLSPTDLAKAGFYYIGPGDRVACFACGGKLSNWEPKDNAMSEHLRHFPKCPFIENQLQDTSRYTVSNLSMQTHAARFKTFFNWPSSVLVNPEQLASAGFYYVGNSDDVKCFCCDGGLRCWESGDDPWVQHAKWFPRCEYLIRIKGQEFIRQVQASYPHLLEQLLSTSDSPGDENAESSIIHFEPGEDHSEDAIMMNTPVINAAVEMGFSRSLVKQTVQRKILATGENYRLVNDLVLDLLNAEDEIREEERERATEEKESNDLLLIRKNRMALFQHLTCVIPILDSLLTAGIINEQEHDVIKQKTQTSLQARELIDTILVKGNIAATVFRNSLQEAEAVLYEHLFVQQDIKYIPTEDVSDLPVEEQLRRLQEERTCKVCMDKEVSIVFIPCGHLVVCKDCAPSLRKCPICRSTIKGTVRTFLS
Baculoviral IAP repeat-containing protein 2, sequence (Q13490 whole entry, the tested form may be a part): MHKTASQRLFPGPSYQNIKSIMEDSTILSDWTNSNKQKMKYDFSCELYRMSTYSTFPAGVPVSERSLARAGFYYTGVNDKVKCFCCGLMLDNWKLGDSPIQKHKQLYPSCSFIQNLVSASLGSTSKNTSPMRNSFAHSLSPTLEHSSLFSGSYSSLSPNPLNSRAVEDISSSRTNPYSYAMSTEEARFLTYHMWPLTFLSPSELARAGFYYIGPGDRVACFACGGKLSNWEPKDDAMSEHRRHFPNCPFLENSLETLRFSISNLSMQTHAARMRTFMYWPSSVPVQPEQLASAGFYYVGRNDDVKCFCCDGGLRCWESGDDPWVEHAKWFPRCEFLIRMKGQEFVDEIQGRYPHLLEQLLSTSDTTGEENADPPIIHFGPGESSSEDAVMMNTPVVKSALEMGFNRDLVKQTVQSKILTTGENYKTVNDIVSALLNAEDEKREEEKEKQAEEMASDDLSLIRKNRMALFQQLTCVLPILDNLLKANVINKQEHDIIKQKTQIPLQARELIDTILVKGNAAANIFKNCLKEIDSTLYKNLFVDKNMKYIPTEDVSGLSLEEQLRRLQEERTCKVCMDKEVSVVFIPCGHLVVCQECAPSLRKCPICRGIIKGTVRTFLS

ΔTm [6] | Structure (SMILES) | IC50 [1] | IC50 [2] | IC50 [4] | Activity [5] | Activity [7] | further results
 | CN[C@@H](C)C(=O)N[C@@H](CNC(=O)c1cccc(S(=O)(=O)F)c1)C(=O)N1CCC[C@H]1C(=O)NC1Cc2ccccc2C1 | > 2500 nM | > 1500 nM | > 1000 nM |  |  | IC50 [3]: > 1000 nM
4.7 °C | CN[C@@H](C)C(=O)N[C@@H](CNC(=O)c1cc(S(=O)(=O)O)ccc1OC)C(=O)N1CCC[C@H]1C(=O)N[C@@H]1CCc2ccccc21 |  |  |  |  |  | 
14.5 °C | CN[C@@H](C)C(=O)N[C@H](C(=O)N1CCC[C@H]1c1nc(C(=O)c2ccc(F)cc2)cs1)C1CCCCC1 [LCL-161] |  |  | 9 nM | Tde | Dde | IC50 [8]: 15 nM; ΔTm [9]: 12.6 °C
 | CN[C@@H](C)C(=O)N[C@@H](CNC(=O)c1cc(S(=O)(=O)F)ccc1OC)C(=O)N1CCC[C@H]1C(=O)N[C@@H]1CCc2c(F)cccc21 | > 1000 nM |  |  |  |  | 
 | CN[C@@H](C)C(=O)N[C@@H](CNC(=O)c1cc(S(=O)(=O)F)ccc1OC)C(=O)N1CCCC[C@H]1C(=O)N[C@@H](Cc1ccccc1)C(N)=O | > 2500 nM | > 2000 nM |  |  |  | 

Structure (SMILES) | ΔTm [6] | IC50 [1] | IC50 [2] | IC50 [4] | Activity [5] | Activity [7] | further results
CN[C@@H](C)C(=O)N[C@@H](CNC(=O)c1cc(S(=O)(=O)F)ccc1OC)C(=O)N1CCC[C@H]1C(=O)N[C@@H]1CCc2ccccc21 | 6.2 °C |  |  |  | Tde | Dde | 
